Several values for one entry are separate records, joined by “and”; a condition that tells them apart may be missing. Equal entries are not always repeated. Where two headings read alike, the source gives them in different places.
Legend:
[1] = biological target: B. taurus (heart) complex I (Bos taurus, UniProt P03887+P17694+P42026); test: biochemical; type: biochemical; settings: for IC50: read-out: B. taurus Complex I IC50
Description: Six 8–10-week-old C57Bl/6 female mice (Charles River) were freshly dissected, and their livers and hearts collected into separate 1.5 mL microcentrifuge tubes. Organs were flash-frozen in liquid nitrogen and stored at −80 °C prior to use. The heart of a freshly slaughtered adult cow was obtained from a local abattoir (Peel Sausage Inc.), chopped into ~1-inch cubes and collected into 50 mL falcon tubes. Falcon tubes were flash-frozen in a container of dry ice and stored at −80 °C prior to use. Isolation of mitochondria from all mammalian tissue was carried out following the protocol described above. However, due to size, the initial homogenization of tissue was performed by 15 strokes in a dounce homogenizer (mouse heart) or with several 5 s pulses in small Nutribullet blender (cow heart). All mouse protocols for mouse care and dissection were reviewed and approved by the University of Toronto Animal Care Committee, in accordance with the Canadian Council on Animal Care.
The enzymatic activities of individual ETC complexes (I-IV) were assessed spectrophotometrically in isolated mitochondria using a Varioskan LUX Multimode plate reader (ThermoFisher Scientific). Mitochondrial pellets previously isolated were thawed on ice and resuspended in ice-cold isolation buffer (250 mM sucrose, 10 mM Tris (pH 7.5), 1 mM EDTA). The BCA assay (Walker, 1994) was used to quantify the protein concentration of mitochondria suspensions; solutions were diluted to a concentration of 0.2 mg/mL for use in all assays. For the complex I assay, mitochondria pellets were freeze-thawed on ice three times to increase enzyme accessibility. […] 20 μL mitochondria suspension was then added/mixed with a pipette to initiate the reaction. Immediately following the addition of mitochondria, absorbance was measured (complex I and II: 600 nm; complex III and IV: 550 nm) in 30 s intervals over 15 min. Enzymatic activity was determined in each reaction by plotting absorbance versus time and calculating the slope of the curve during the initial linear phase of the reaction. […] Percent activity of each complex was calculated by dividing the enzyme-specific activity of each well by the enzyme-specific activity of the corresponding solvent controls.
Chemical solutions were prepared in complex I assay buffer composed of 25 mM KPi buffer (pH 7.5), 3 mg/mL bovine serum albumin (BSA), 80 μM NADH, 60 μM decylubiquinone, 160 μM DCIP, 2 μM antimycin A and 2 mM KCN.
For preliminary screens of hit compounds, compounds were screened at 100 μM; data are the average of at least three biological replicates. The complex I and II activity assays were used for additional dose-response experiments. […] For dose responses of benzimidazole analogs, data represent the average of two biological replicates. For all other dose-responses, data represent the average of at least three biological replicates.

[2] = biological target: C. elegans (N2) complex I (NADH:ubiquinone oxidoreductase) (Caenorhabditis elegans, UniProt P24887+Q93873+Q94360); test: biochemical; type: biochemical; settings: 0.0001 µM; wild-type C. elegans; individual Rep1-Rep4; read-out: percent in vitro complex I activity relative to solvent control, single replicates
Sequence of C. elegans (N2) complex I (NADH:ubiquinone oxidoreductase) (Q94360 17-199): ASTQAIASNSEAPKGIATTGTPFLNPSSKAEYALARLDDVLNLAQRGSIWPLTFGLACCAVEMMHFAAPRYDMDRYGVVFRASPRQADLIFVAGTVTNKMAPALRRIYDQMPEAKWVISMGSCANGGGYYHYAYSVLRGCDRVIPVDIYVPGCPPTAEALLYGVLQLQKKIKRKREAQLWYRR
Sequence of C. elegans (N2) complex I (NADH:ubiquinone oxidoreductase) (P24887 whole entry): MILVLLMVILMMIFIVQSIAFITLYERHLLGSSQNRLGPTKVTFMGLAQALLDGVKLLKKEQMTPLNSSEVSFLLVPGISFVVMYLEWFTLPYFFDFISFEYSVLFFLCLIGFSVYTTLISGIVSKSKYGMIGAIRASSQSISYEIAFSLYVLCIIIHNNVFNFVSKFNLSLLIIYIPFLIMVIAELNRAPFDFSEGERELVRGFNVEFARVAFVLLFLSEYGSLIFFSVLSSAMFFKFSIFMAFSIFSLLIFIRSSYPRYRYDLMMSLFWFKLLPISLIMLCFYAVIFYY
Sequence of C. elegans (N2) complex I (NADH:ubiquinone oxidoreductase) (Q93873 31-482): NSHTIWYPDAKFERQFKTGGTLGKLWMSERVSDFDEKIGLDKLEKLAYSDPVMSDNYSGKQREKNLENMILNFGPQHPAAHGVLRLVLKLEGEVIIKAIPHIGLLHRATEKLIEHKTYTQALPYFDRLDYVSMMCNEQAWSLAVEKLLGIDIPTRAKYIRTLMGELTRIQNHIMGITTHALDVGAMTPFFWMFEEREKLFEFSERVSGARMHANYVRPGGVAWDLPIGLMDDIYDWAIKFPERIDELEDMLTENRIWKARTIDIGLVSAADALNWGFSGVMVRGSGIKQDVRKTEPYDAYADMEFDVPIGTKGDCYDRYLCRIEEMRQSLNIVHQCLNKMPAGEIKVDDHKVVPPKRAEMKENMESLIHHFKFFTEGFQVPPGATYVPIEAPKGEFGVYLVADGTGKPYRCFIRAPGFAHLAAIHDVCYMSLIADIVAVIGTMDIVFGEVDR
Procedure, shortened: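 Mitochondria from liquid-cultured adults were freeze-thawed thrice before the 15-min DCIP-coupled NADH oxidation read.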

[3] = B. taurus (heart) mitochondria, mean of replicates, read-out: percent (%) in vitro complex I activity relative to solvent control
[4] = B. taurus (heart) mitochondria, single replicate, read-out: percent (%) in vitro complex I activity relative to solvent control
[5] = B. taurus (heart) mitochondria, Mean of replicates, read-out: in vitro complex I activity relative to solvent control
[6] = B. taurus (heart) mitochondria, single replicate, read-out: in vitro complex I activity relative to solvent control

Sequence of B. taurus (heart) complex I (P03887 whole entry): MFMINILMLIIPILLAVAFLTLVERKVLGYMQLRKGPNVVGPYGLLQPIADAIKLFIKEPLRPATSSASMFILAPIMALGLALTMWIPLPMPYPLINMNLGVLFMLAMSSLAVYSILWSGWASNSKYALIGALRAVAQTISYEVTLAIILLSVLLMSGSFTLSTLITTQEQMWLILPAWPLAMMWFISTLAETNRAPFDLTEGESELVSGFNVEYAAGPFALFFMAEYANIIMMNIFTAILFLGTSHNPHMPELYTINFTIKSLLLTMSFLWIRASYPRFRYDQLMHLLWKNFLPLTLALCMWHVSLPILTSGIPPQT
Sequence of B. taurus (heart) complex I (P17694 34-463): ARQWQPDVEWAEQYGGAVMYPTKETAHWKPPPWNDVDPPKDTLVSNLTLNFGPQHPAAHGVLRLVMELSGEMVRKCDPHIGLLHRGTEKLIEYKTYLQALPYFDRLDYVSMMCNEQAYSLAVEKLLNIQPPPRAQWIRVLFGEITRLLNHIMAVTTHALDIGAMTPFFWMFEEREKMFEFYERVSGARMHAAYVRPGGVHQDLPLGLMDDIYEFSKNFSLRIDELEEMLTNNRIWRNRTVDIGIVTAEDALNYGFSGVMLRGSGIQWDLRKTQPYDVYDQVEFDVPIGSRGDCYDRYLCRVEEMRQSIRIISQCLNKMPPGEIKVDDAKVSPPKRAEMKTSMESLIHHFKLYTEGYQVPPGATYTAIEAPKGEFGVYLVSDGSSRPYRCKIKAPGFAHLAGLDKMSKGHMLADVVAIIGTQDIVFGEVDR
Sequence of B. taurus (heart) complex I (P42026 38-216): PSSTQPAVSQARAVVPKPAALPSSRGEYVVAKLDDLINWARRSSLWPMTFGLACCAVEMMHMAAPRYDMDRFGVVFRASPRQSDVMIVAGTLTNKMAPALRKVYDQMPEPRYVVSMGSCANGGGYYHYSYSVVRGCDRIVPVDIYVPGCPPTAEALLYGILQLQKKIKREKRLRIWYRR

CC(C)Cc1ccc(C(C)c2nc3ccccc3n2C)cc1 (stereo not drawn) [NPD8790]
remaining activity at 0.125 µM ([1]; 0.125 µM, B. taurus (heart) mitochondria, mean of replicates, read-out: percent (%) in vitro complex I activity relative to solvent control): 101% | remaining activity at 0.313 µM [1, 3]: 112% | remaining activity at 0.313 µM [1, 4]: 118% | remaining activity at 0.625 µM [1, 3]: 103% | remaining activity at 0.625 µM [1, 4]: 96.1% | remaining activity at 1.5 µM [1, 3]: 107% | remaining activity at 3 µM [1, 3]: 104% | remaining activity at 15 µM [1, 3]: 79.4% | remaining activity at 37.5 µM [1, 3]: 38% | remaining activity at 37.5 µM [1, 4]: 38.8% | remaining activity at 75 µM [1, 3]: 13.6% | remaining activity at 0.06 µM ([1]; B. taurus (heart) mitochondria, 0.06 µM, Mean of replicates, read-out: in vitro complex I activity relative to solvent control): 103% | remaining activity at 0.13 µM ([1]; B. taurus (heart) mitochondria, 0.13 µM, Mean of replicates, read-out: in vitro complex I activity relative to solvent control): 101% | remaining activity at 0.313 µM [1, 5]: 112% | remaining activity at 0.313 µM [1, 6]: 118% | remaining activity at 0.625 µM [1, 5]: 103% | remaining activity at 0.625 µM [1, 6]: 96.1% | remaining activity at 1.5 µM [1, 5]: 107% | remaining activity at 3 µM [1, 5]: 104% | remaining activity at 15 µM [1, 5]: 79.4% | remaining activity at 37.5 µM [1, 5]: 38% | remaining activity at 37.5 µM [1, 6]: 38.8% | remaining activity at 75 µM [1, 5]: 13.6% | IC50 ([1]; B. taurus heart mitochondria): 27.2 µM | activity at 0.0001 µM ([1]; B. taurus, dose 0.0001 µM, Mean of replicates, read-out: Complex I activity, dose-response data): 104% | Complex I activity, dose-response data ([1]; B. taurus, dose 0.0001 µM, individual replicates (Rep)): 106.495 and 102.513 and 108.647 | activity at 0.0001 µM ([1]; B. taurus, dose 0.0001 µM, individual replicates (Rep), read-out: Complex I activity, dose-response data): 97.6% | activity at 0.0005 µM ([1]; B. taurus, dose 0.0005 µM, Mean of replicates, read-out: Complex I activity, dose-response data): 101% | Complex I activity, dose-response data ([1]; B. taurus, dose 0.0005 µM, individual replicates (Rep)): 104.650 and 93.657 and 105.597 | activity at 0.0005 µM ([1]; B. taurus, dose 0.0005 µM, individual replicates (Rep), read-out: Complex I activity, dose-response data): 99.4% | activity at 0.001 µM ([1]; B. taurus, dose 0.001 µM, Mean of replicates, read-out: Complex I activity, dose-response data): 105% | Complex I activity, dose-response data ([1]; B. taurus, dose 0.001 µM, individual replicates (Rep)): 106.670 and 104.354 and 107.534 | activity at 0.001 µM ([1]; B. taurus, dose 0.001 µM, individual replicates (Rep), read-out: Complex I activity, dose-response data): 103% | activity at 0.0025 µM ([1]; B. taurus, dose 0.0025 µM, Mean of replicates, read-out: Complex I activity, dose-response data): 104% | Complex I activity, dose-response data ([1]; B. taurus, dose 0.0025 µM, individual replicates (Rep)): 99.492 and 117.130 and 91.896 and 108.464 | activity at 0.005 µM ([1]; B. taurus, dose 0.005 µM, Mean of replicates, read-out: Complex I activity, dose-response data): 114% | Complex I activity, dose-response data ([1]; B. taurus, dose 0.005 µM, individual replicates (Rep)): 112.174 and 127.690 and 101.653 and 112.765 | activity at 0.013 µM ([1]; B. taurus, dose 0.013 µM, Mean of replicates, read-out: Complex I activity, dose-response data): 99.8% | Complex I activity, dose-response data ([1]; B. taurus, dose 0.013 µM, individual replicates (Rep)): 108.528 and 89.880 and 103.599 | activity at 0.013 µM ([1]; B. taurus, dose 0.013 µM, individual replicates (Rep), read-out: Complex I activity, dose-response data): 97.2% | activity at 0.025 µM ([1]; B. taurus, dose 0.025 µM, Mean of replicates, read-out: Complex I activity, dose-response data): 101% | Complex I activity, dose-response data ([1]; B. taurus, dose 0.025 µM, individual replicates (Rep)): 88.122 and 92.313 and 109.456 | activity at 0.063 µM ([1]; B. taurus, dose 0.063 µM, Mean of replicates, read-out: Complex I activity, dose-response data): 103% | Complex I activity, dose-response data ([1]; B. taurus, dose 0.063 µM, individual replicates (Rep)): 101.538 and 112.181 and 91.251 and 105.094 | activity at 0.125 µM ([1]; B. taurus, dose 0.125 µM, Mean of replicates, read-out: Complex I activity, dose-response data): 101% | Complex I activity, dose-response data ([1]; B. taurus, dose 0.125 µM, individual replicates (Rep)): 111.398 and 110.709 and 87.488 and 92.420 | activity at 0.313 µM ([1]; B. taurus, dose 0.313 µM, Mean of replicates, read-out: Complex I activity, dose-response data): 112% | Complex I activity, dose-response data ([1]; B. taurus, dose 0.313 µM, individual replicates (Rep)): 118.464 and 105.228 and 106.985 | activity at 0.313 µM ([1]; B. taurus, dose 0.313 µM, individual replicates (Rep), read-out: Complex I activity, dose-response data): 118% | activity at 0.625 µM ([1]; B. taurus, dose 0.625 µM, Mean of replicates, read-out: Complex I activity, dose-response data): 103% | Complex I activity, dose-response data ([1]; B. taurus, dose 0.625 µM, individual replicates (Rep)): 106.273 and 97.568 and 112.424 | activity at 0.625 µM ([1]; B. taurus, dose 0.625 µM, individual replicates (Rep), read-out: Complex I activity, dose-response data): 96.1% | activity at 1.5 µM ([1]; B. taurus, dose 1.5 µM, Mean of replicates, read-out: Complex I activity, dose-response data): 107% | Complex I activity, dose-response data ([1]; B. taurus, dose 1.5 µM, individual replicates (Rep)): 108.615 and 114.555 and 94.027 and 109.488 | activity at 3 µM ([1]; B. taurus, dose 3 µM, Mean of replicates, read-out: Complex I activity, dose-response data): 104% | Complex I activity, dose-response data ([1]; B. taurus, dose 3 µM, individual replicates (Rep)): 105.743 and 114.475 and 92.946 and 103.733 | activity at 15 µM ([1]; B. taurus, dose 15 µM, Mean of replicates, read-out: Complex I activity, dose-response data): 79.4% | Complex I activity, dose-response data ([1]; B. taurus, dose 15 µM, individual replicates (Rep)): 82.876 and 90.607 and 69.676 and 74.384 | activity at 37.5 µM ([1]; B. taurus, dose 37.5 µM, Mean of replicates, read-out: Complex I activity, dose-response data): 38% | Complex I activity, dose-response data ([1]; B. taurus, dose 37.5 µM, individual replicates (Rep)): 49.756 and 32.716 and 30.663 | activity at 37.5 µM ([1]; B. taurus, dose 37.5 µM, individual replicates (Rep), read-out: Complex I activity, dose-response data): 38.8% | activity at 75 µM ([1]; B. taurus, dose 75 µM, Mean of replicates, read-out: Complex I activity, dose-response data): 13.6% | Complex I activity, dose-response data ([1]; B. taurus, dose 75 µM, individual replicates (Rep)): 6.165 and 16.790 and 16.865 and 14.475 | IC50 ([1]; heart mitochondria): 27.2 µM | Log IC50 B. taurus complex I ([1]; log10 of IC50 in µM, B. taurus mitochondria): 1.43 µM | remaining activity at 0.0001 µM [2]: 100%

Source: PMC11079024, “Identification of a family of species-selective complex I inhibitors as potential anthelmintics” (Nature Communications, 2024)
